From PubChem BioAssay AID1963829 (Molecular Pharmacology Branch, DTP, NCI, 2024)
Where “and” joins values, the source holds several entries; their conditions need not be identical. Identical values can stand only once.

Test system: 935938-334-R-J1-PDC complex spheroid viability
Assay: Anticancer human tumor 935938-334-R-J1-PDC patient-derived small intestine adenocarcinoma cell line growth inhibition [POLQ]
Conditions: for viability, T/C: stronger effect = lower value
How it was run: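 PDC + HUVEC + MSC complex spheroids; POLQ inhibitors ± partner drugs; top conc. at/near clinical Cmax, else 10 microM (SN-38 1 microM), half-log dilutions; 37 degrees C, 5% CO2.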

[1] = curve of first compound, second compound 0.0316 µM
[2] = curve of first compound, second compound 0.1 µM
[3] = curve of first compound, second compound 0.316 µM
[4] = curve of first compound, second compound 1 µM
[5] = curve of first compound, second compound 3.16 µM
[6] = curve of first compound, second compound 10 µM
[7] = second compound 0.0316 µM, first compound 0.0316 µM
[8] = second compound 0.0316 µM, first compound 0.1 µM
[9] = second compound 0.0316 µM, first compound 0.316 µM
[10] = second compound 0.0316 µM, first compound 1 µM
[11] = second compound 0.0316 µM, first compound 3.16 µM
[12] = second compound 0.0316 µM, first compound 10 µM
[13] = second compound 0.1 µM, first compound 0.0316 µM
[14] = second compound 0.1 µM, first compound 0.1 µM
[15] = second compound 0.1 µM, first compound 0.316 µM
[16] = second compound 0.1 µM, first compound 1 µM
[17] = second compound 0.1 µM, first compound 3.16 µM
[18] = second compound 0.1 µM, first compound 10 µM
[19] = second compound 0.316 µM, first compound 0.0316 µM
[20] = second compound 0.316 µM, first compound 0.1 µM
[21] = second compound 0.316 µM, first compound 0.316 µM
[22] = second compound 0.316 µM, first compound 1 µM
[23] = second compound 0.316 µM, first compound 3.16 µM
[24] = second compound 0.316 µM, first compound 10 µM
[25] = second compound 1 µM, first compound 0.0316 µM
[26] = second compound 1 µM, first compound 0.1 µM
[27] = second compound 1 µM, first compound 0.316 µM
[28] = second compound 1 µM, first compound 1 µM
[29] = second compound 1 µM, first compound 3.16 µM
[30] = second compound 1 µM, first compound 10 µM
[31] = second compound 3.16 µM, first compound 0.0316 µM
[32] = second compound 3.16 µM, first compound 0.1 µM
[33] = second compound 3.16 µM, first compound 0.316 µM
[34] = second compound 3.16 µM, first compound 1 µM
[35] = second compound 3.16 µM, first compound 3.16 µM
[36] = second compound 3.16 µM, first compound 10 µM
[37] = second compound 10 µM, first compound 0.0316 µM
[38] = second compound 10 µM, first compound 0.1 µM
[39] = second compound 10 µM, first compound 0.316 µM
[40] = second compound 10 µM, first compound 1 µM
[41] = second compound 10 µM, first compound 3.16 µM
[42] = second compound 10 µM, first compound 10 µM
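Further: spheroids exposed to drugs for seven days before viability read.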
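Wherever viability, T/C is given: 100% = DMSO vehicle control wells.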

## CC(C)n1c(=O)n(C)c2cnc3cc(F)c(-c4ccc(OCCCN5CCCCC5)nc4)cc3c21 + Cc1cccc(N(C)C(=O)C2C(O)CCN2c2nc(C)cc(C(F)(F)F)c2C#N)c1
[1]
  IC50: > 10 µM
[2]
  IC50: > 10 µM
[3]
  IC50: > 10 µM
[4]
  IC50: > 10 µM
[5]
  IC50: > 10 µM
[6]
  IC50: > 10 µM
[7]
  viability, T/C: 86.8%
[8]
  viability, T/C: 98.4%
[9]
  viability, T/C: 77.5%
[10]
  viability, T/C: 112%
[11]
  viability, T/C: 111%
[12]
  viability, T/C: 125%
[13]
  viability, T/C: 85.9%
[14]
  viability, T/C: 84.7%
[15]
  viability, T/C: 82.8%
[16]
  viability, T/C: 82%
[17]
  viability, T/C: 110%
[18]
  viability, T/C: 88.3%
[19]
  viability, T/C: 97.5%
[20]
  viability, T/C: 94.9%
[21]
  viability, T/C: 100%
[22]
  viability, T/C: 97%
[23]
  viability, T/C: 94.2%
[24]
  viability, T/C: 97.3%
[25]
  viability, T/C: 88%
[26]
  viability, T/C: 103%
[27]
  viability, T/C: 89.1%
[28]
  viability, T/C: 93.5%
[29]
  viability, T/C: 105%
[30]
  viability, T/C: 98.7%
[31]
  viability, T/C: 93.4%
[32]
  viability, T/C: 93.7%
[33]
  viability, T/C: 100%
[34]
  viability, T/C: 98.1%
[35]
  viability, T/C: 112%
[36]
  viability, T/C: 89.5%
[37]
  viability, T/C: 105%
[38]
  viability, T/C: 80.6%
[39]
  viability, T/C: 90.5%
[40]
  viability, T/C: 84.6%
[41]
  viability, T/C: 76.9%
[42]
  viability, T/C: 80.1%

## CCc1cc2c(N3CCc4c(cc(Cn5ccnc5)cc4-c4cn(C)nc4C(F)(F)F)C3=O)ccnc2c(OC)n1 + Nc1ccc(C#CCN(C(=O)Cc2ncc(C(F)(F)F)cc2C(F)(F)F)c2ccc(F)cc2)nn1
[1]
  IC50: > 10 µM
[2]
  IC50: > 10 µM
[3]
  IC50: > 10 µM
[4]
  IC50: > 10 µM
[5]
  IC50: > 10 µM
[6]
  IC50: > 10 µM
[7]
  viability, T/C: 79.9%
[8]
  viability, T/C: 57.4%
[9]
  viability, T/C: 52.4%
[10]
  viability, T/C: 70.4%
[11]
  viability, T/C: 59.1%
[12]
  viability, T/C: 60.8%
[13]
  viability, T/C: 88.2%
[14]
  viability, T/C: 68%
[15]
  viability, T/C: 64.5%
[16]
  viability, T/C: 57.4%
[17]
  viability, T/C: 70%
[18]
  viability, T/C: 60.7%
[19]
  viability, T/C: 88.8%
[20]
  viability, T/C: 66%
[21]
  viability, T/C: 67.9%
[22]
  viability, T/C: 63.5%
[23]
  viability, T/C: 63.5%
[24]
  viability, T/C: 61.7%
[25]
  viability, T/C: 91.2%
[26]
  viability, T/C: 67.1%
[27]
  viability, T/C: 82.7%
[28]
  viability, T/C: 70.5%
[29]
  viability, T/C: 59.5%
[30]
  viability, T/C: 64.4%
[31]
  viability, T/C: 90.6%
[32]
  viability, T/C: 97.6%
[33]
  viability, T/C: 70.3%
[34]
  viability, T/C: 64.6%
[35]
  viability, T/C: 72.5%
[36]
  viability, T/C: 60.2%
[37]
  viability, T/C: 80.7%
[38]
  viability, T/C: 82.2%
[39]
  viability, T/C: 85.5%
[40]
  viability, T/C: 64.3%
[41]
  viability, T/C: 56.7%
[42]
  viability, T/C: 66.9%

## COc1cccc(OCCCN)c1-c1cc(Nc2cnc(C#N)cn2)n[nH]1 + COC1C(OC(N)=O)C(O)C(Oc2ccc3c(O)c(NC(=O)c4ccc(O)c(CC=C(C)C)c4)c(=O)oc3c2C)OC1(C)C
[1]
  IC50: 0.0496 µM
[2]
  IC50: 0.0387 µM
[3]
  IC50: 0.0479 µM
[4]
  IC50: 0.0369 µM
[5]
  IC50: 0.0369 µM
[6]
  IC50: 0.0278 µM
Second compound 0.0316 µM, first compound 0.00316 µM
  viability, T/C: 90.2%
Second compound 0.0316 µM, first compound 0.01 µM
  viability, T/C: 88.9%
[7]
  viability, T/C: 65.2%
[8]
  viability, T/C: 25.8%
[9]
  viability, T/C: 12.1%
[10]
  viability, T/C: 9.12%
Second compound 0.1 µM, first compound 0.00316 µM
  viability, T/C: 100%
Second compound 0.1 µM, first compound 0.01 µM
  viability, T/C: 89.1%
[13]
  viability, T/C: 54.5%
[14]
  viability, T/C: 25.4%
[15]
  viability, T/C: 12.5%
[16]
  viability, T/C: 9.92%
Second compound 0.316 µM, first compound 0.00316 µM
  viability, T/C: 89.2%
Second compound 0.316 µM, first compound 0.01 µM
  viability, T/C: 79.7%
[19]
  viability, T/C: 64.2%
[20]
  viability, T/C: 26.6%
[21]
  viability, T/C: 10.6%
[22]
  viability, T/C: 9.51%
Second compound 1 µM, first compound 0.00316 µM
  viability, T/C: 113%
Second compound 1 µM, first compound 0.01 µM
  viability, T/C: 85.1%
[25]
  viability, T/C: 57.5%
[26]
  viability, T/C: 23.7%
[27]
  viability, T/C: 11.1%
[28]
  viability, T/C: 8.98%
Second compound 3.16 µM, first compound 0.00316 µM
  viability, T/C: 80.7%
Second compound 3.16 µM, first compound 0.01 µM
  viability, T/C: 89.8%
[31]
  viability, T/C: 52%
[32]
  viability, T/C: 22.3%
[33]
  viability, T/C: 11.1%
[34]
  viability, T/C: 9%
Second compound 10 µM, first compound 0.00316 µM
  viability, T/C: 84.4%
Second compound 10 µM, first compound 0.01 µM
  viability, T/C: 91.6%
[37]
  viability, T/C: 45.3%
[38]
  viability, T/C: 15.4%
[39]
  viability, T/C: 11.8%
[40]
  viability, T/C: 8.31%

## CC1COCCN1c1cc(-c2ccnn2C)c2ccnc(-c3ccn[nH]3)c2n1 (configuration not stated)
Compound 0.0316 µM
  viability, T/C: 82.6% and 80.7% and 109%
Compound 0.1 µM
  viability, T/C: 48.1% and 37.2% and 43.2%
Compound 0.316 µM
  viability, T/C: 23.7% and 26.6% and 25.3%
Compound 1 µM
  viability, T/C: 19.7% and 18.6% and 15.1%
Compound 3.16 µM
  viability, T/C: 17.2% and 15.3% and 17.5%
Compound 10 µM
  viability, T/C: 19.2% and 18.9% and 18.3%
Curve of compound
  IC50: 0.0939 µM and 0.0731 µM and 0.0896 µM

## CC[C@@]1(O)C(=O)OCc2c1cc1n(c2=O)Cc2cc3c(CN(C)C)c(O)ccc3nc2-1
Compound 0.000316 µM
  viability, T/C: 81.3% and 82.1% and 82.2%
Compound 0.001 µM
  viability, T/C: 103% and 107% and 86.1%
Compound 0.00316 µM
  viability, T/C: 72.4% and 89.2% and 99%
Compound 0.01 µM
  viability, T/C: 103% and 118% and 92.3%
Compound 0.0316 µM
  viability, T/C: 96.8% and 83.6% and 81.2%
Compound 0.1 µM
  viability, T/C: 49.7% and 61.4% and 63%
Curve of compound
  IC50: 0.0992 µM and > 0.1 µM

## CC(C)n1c(=O)n(C)c2cnc3cc(F)c(-c4ccc(OCCCN5CCCCC5)nc4)cc3c21
Compound 0.0316 µM
  viability, T/C: 75.1% and 94.3% and 79.1%
Compound 0.1 µM
  viability, T/C: 104% and 75.2% and 67.4%
Compound 0.316 µM
  viability, T/C: 103% and 102% and 65.2%
Compound 1 µM
  viability, T/C: 92.1% and 121% and 73.4%
Compound 3.16 µM
  viability, T/C: 113% and 120% and 72.1%
Compound 10 µM
  viability, T/C: 94.9% and 91.5% and 72.9%
Curve of compound
  IC50: > 10 µM
